Common to all, as to type: functional
The species named for experiment [1] is Mus musculus. As to the kind of experiment: Effect on the proliferation of murine spleen cells evaluated in terms of [3H]TdR uptake into the cells at a concentration of 10 ng/mL.
The species named for experiment [2] is Mus musculus. The experiment is described as follows: Effect on the proliferation of murine spleen cells evaluated in terms of [3H]TdR uptake into the cells at a concentration of 100 ng/mL.
For experiment [3], the species on record is Mus musculus. The experiment is described as follows: Effect on the proliferation of murine spleen cells evaluated in terms of [3H]TdR uptake into the cells at a concentration of 1 ng/mL.

For `CCCCCCCCCCCCCCC[C@@H](O)[C@H](CO[C@H]1O[C@@H](CO)[C@H](O)[C@H](O)[C@@H]1O)NC(=O)CCCCCCCCCCCCC`, the results for the 3H-TdR incorpolation in experiment [1], in experiment [2] and in experiment [3] were 44395 c.p.m, 44395 c.p.m and 9018 c.p.m, respectively.

Consider `CCCCCCCCCCCCCCCCCCCCCC[C@@H](O)C(=O)N[C@@H](CO[C@H]1O[C@@H](CO)[C@H](O)[C@H](O)[C@@H]1O)[C@H](O)CCCCCCCCCCCCCCC`, for which the 3H-TdR incorpolation came out at 20283 c.p.m in experiment [1], 45966 c.p.m in experiment [2] and 9454 c.p.m in experiment [3].

Take `CCCCCCCCCCCCCCC[C@@H](O[C@H]1O[C@@H](CO)[C@H](O)[C@H](O)[C@@H]1O)[C@H](CO)NC(=O)CCCCCCCCCCCCC`: the figures for the 3H-TdR incorpolation in experiment [1], in experiment [2] and in experiment [3] were 7412 c.p.m, 6141 c.p.m and 7722 c.p.m, respectively.

For `CCCCCCCCCCCCCCCCCCCCCC[C@@H](O)C(=O)N[C@@H](CO[C@H]1O[C@@H](CO)[C@H](O)[C@H](O)[C@@H]1O)[C@@H](CCCCCCCCCCCCCCC)O[C@@H]1O[C@@H](CO)[C@H](O)[C@H](O)[C@@H]1O`, the 3H-TdR incorpolation turned out to be 13195 c.p.m in experiment [1], 45036 c.p.m in experiment [2] and 7892 c.p.m in experiment [3].

As to `CCCCCCCCCCCCCCCCCCCCCC[C@@H](O)C(=O)N[C@@H](CO[C@H]1O[C@@H](CO)[C@H](O)[C@H](O)[C@@H]1O)[C@@H](CCCCCCCCCCCCCCC)O[C@H]1O[C@@H](CO)[C@H](O)[C@H](O)[C@@H]1O`, the results for the 3H-TdR incorpolation in experiment [1], in experiment [2] and in experiment [3] were 34892 c.p.m, 44867 c.p.m and 16138 c.p.m, respectively.

(Values after ChEMBL document CHEMBL1132057, “Effects of 3alpha- and 3beta-galactosylated alpha-galactosylceramides on the immune system” (1999).)
